Earlier results, collected in patent publication US9961900B2, “Herbicide formulations” (priority 2012, dated 2018).
Converted amounts (≈) assume the structure as drawn. Where two headings read alike, the source gives them in different places. Blank lines part the entries; values can stand above or below the compound they belong to.

Key:
[1] = not given; remark: listed apart in the source
[2] = for Aqueous hydrolysis (DT50): 20° C. and pH 7
[3] = not given; remark: listed apart in the source

Structure (SMILES): COC(=O)[C@@H](C)Oc1ccc(Oc2ncc(C(F)(F)F)cc2Cl)cc1 [haloxyfop-p-methyl, methyl (R)-2-{4-[3-chloro-5-(trifluoromethyl)-2-pyridyloxy]phenoxy}propionate]
Solubility in acetone (25° C.): > 500 g/L
Solubility in dichloromethane (25° C.): > 500 g/L
Solubility in ethyl acetate (25° C.): > 500 g/L
Solubility in methanol (25° C.): 76 g/L (≈ 202 mM)
Solubility in n-hexane (25° C.): 11 g/L (≈ 29.3 mM)
Solubility in toluene (25° C.): > 500 g/L
Solubility in water (pH 5, 25° C.): 6.9 mg/L (≈ 0.0184 mM)
Solubility in water (pH 7, 25° C.): 7.9 mg/L at pH 7 (all at 25° C.)
Solubility in water (unbuffered, 25° C.): 9.1 mg/L (≈ 0.0242 mM)
log P (octanol-water) ([1]; 20° C.): log P = 4.0
DT50 ([2]; natural water, 20° C.): 3 days
DT50 ([2]; pH 4, 20° C.): stable
DT50 ([2]; pH 7, 20° C.): 43 days
DT50 ([2]; pH 9, 20° C.): 0.63 d (pH 9) (all at 20° C.) ^+
Aqueous photolysis DT50 ([3]; pH 7): Aqueous photolysis DT50 at pH 7: 20 days^++

Structure (SMILES): COc1ncc(F)c2nc(S(=O)(=O)Nc3c(F)cccc3F)nn12 [florasulam]
Solubility in acetone: Acetone: 123,000 mg/L
Solubility in water: Water: 6360 mg/L
log P (octanol-water) [1]: log P: −1.22
Aqueous hydrolysis ([2]; at pH 7 and 20° C.): Stable
Photolytic stability DT50 ([3]; at pH 7): DT50: 156 d

Structure (SMILES): COC(=O)C(C)Oc1ccc(Oc2ccc(Cl)cc2Cl)cc1 (racemic) [diclofop-methyl, methyl (RS)-2-[4-(2,4-dichlorophenoxy)phenoxy]propionate]
Solubility in acetone (20° C.): In acetone, toluene, dichloromethane, 500,000 mg/L
Solubility in dichloromethane (20° C.): In acetone, toluene, dichloromethane, 500,000 mg/L
Solubility in n-hexane (20° C.): mg/L; in n-Hexane: 49,700 mg/L (all at 20° C.) ^++
Solubility in toluene (20° C.): In acetone, toluene, dichloromethane, 500,000 mg/L
Solubility in water (20° C.): Water: 0.39 mg/L (20° C.)
log P (octanol-water) ([1]; pH 7, 20° C.): log P = 4.8
Aqueous hydrolysis (DT50) [2]: at 20 °C and pH 7: 31.7 days
Hydrolysis DT50 ([2]; pH 5, 25° C., darkness): 363 days
Hydrolysis DT50 ([2]; pH 7, 25° C., darkness): 31.7 days
Hydrolysis DT50 ([2]; pH 9, 25° C., darkness): 0.52 days
Aqueous photolysis DT50 ([3]; pH 7): Aqueous photolysis DT50 at pH 7: 22 days^++

Solubility in methanol (20° C.): methanol 43 g/L (all at 20° C.) ^+
Solubility in water (pH 5.8, 25° C.): Water: 0.7 mg/L at pH 5.8 (25° C.)
log P (octanol-water) [1]: log P = 4.58 ^+
Hydrolytic DT50 ([2]; pH 4, 25° C.): 2.8 days
Hydrolytic DT50 ([2]; pH 5, 25° C.): 19.2 days
Hydrolytic DT50 ([2]; pH 7, 25° C.): 23.2 days
Hydrolytic DT50 ([2]; pH 9, 25° C.): 7), 0.6 d (pH 9) (all at 25° C.) ^+
Structure (SMILES): CCOC(=O)[C@@H](C)Oc1ccc(Oc2nc3ccc(Cl)cc3o2)cc1 [fenoxaprop-p-ethyl, ethyl (R)-2-[4-(6-chloro-1,3-benzoxazol-2-yloxy)phenoxy]propionate]
Solubility in acetone (20° C.): In acetone, ethyl acetate, toluene, >200 g/L;
Solubility in ethyl acetate (20° C.): In acetone, ethyl acetate, toluene, >200 g/L;
Aqueous photolysis DT50 ([3]; pH 7): Aqueous photolysis DT50 at pH 7: 105 days

Solubility in water (20° C.): Water: 16 mg/L (20° C.) ^++
log P (octanol-water) ([1]; pH 7, 20° C.): logP = 2.7
Structure (SMILES): C#CCOc1cc(-n2nc3n(c2=O)CCCC3)c(Cl)cc1Cl [azafenidin, 2-(2,4-dichloro-5-prop-2-ynyloxyphenyl)-5,6,7,8-tetrahydro-1,2,4-triazolo[4,3-a]pyridin-3(2H)-one]
Aqueous photolysis DT50 ([3]; Pesticide Properties Database): 0.5 days

Structure (SMILES): CCOC(=O)C(Cl)Cc1cc(-n2nc(C)n(C(F)F)c2=O)c(F)cc1Cl (racemic) [carfentrazone-ethyl, ethyl (RS)-2-chloro-3-{2-chloro-5-[4-(difluoromethyl)-4,5-dihydro-3-methyl-5-oxo-1H-1,2,4-triazol-1-yl]-4-fluorophenyl}propionate]
Solubility in acetone (20° C.): 2000 g/L (≈ 4850 mM)
Solubility in ethanol (20° C.): 2000 g/L (≈ 4850 mM)
Solubility in hexane (20° C.): 30 g/L (≈ 72.8 mM)
Solubility in toluene (20° C.): 900 g/L (≈ 2180 mM)
Solubility in water (20° C.): Water: 22 mg/L (20° C.)
log P (octanol-water) ([1]; pH 7, 20° C.): logP = 3.36
Aqueous hydrolysis (DT50) [2]: 13.7 (non-persistent) days
Aqueous hydrolysis stability ([2]; pH 5, 20° C.): pH sensitive: stable at pH 5,
Hydrolysis DT50 ([2]; pH 9, 20° C.): DT50 5.1 hours at pH 9, (20° C.)^+
